Tests used:
[1] = system: macrophage (RAW 246.7) cell line; test: Cytotoxicity by MTT assay; format: cell-based; settings: relative to negative control
From the text: (See Examples 10 through 16 hereinbelow). As confirmed in past research, the nanoparticle formulations have shown to be both safe and non-toxic in non-human primates. In primates, all parameters related to liver toxicity (such as SGOT, SGPT) and kidney toxicity (such as serum creatinine, […]) were normal after repeated nanoparticulate administrations when compared to the control group. […] For confirmation of a potential innate inflammatory response, nitric oxide assays are an important tool. For the assay, dendritic cells are plated in a well plate and exposed to the formulation. After 16 hours, using reagents, a stronger color change indicates a higher production of nitric oxide by these antigen-presenting cells in response to the formulation's antigenicity. […] This indicates minimal if not negligible immunogenicity of the formulation. […] Likewise, cytotoxicity of blank nanoparticles was assessed by MTT (3-(4,5-Dimethylthiazol-2-yl)-2,5-diphenyltetrazolium bromide) assay in a macrophage (RAW 246.7) cell line.
The cytotoxicity of blank and peptide loaded nanoparticles was assessed by the MTT (3-(4,5-Dimethylthiazol-2-yl)-2,5-diphenyltetrazolium bromide) assay. […] Absorbance in each well was measured at 570 nm in a microtiter plate reader. The formation of a colored product quantified by measuring absorbance can be correlated to the percentage of living cells.

[2] = system: BEND3 cells; test: BBB transport across BEND3 cell barrier in Ussing chamber; format: in vitro ADME, mouse; settings: 1, 2, 3 and 4 hours
From the text: To generate a cellular model of the BBB, BEND3 cells were obtained from American Type Culture Collection (ATCC: 2299). BEND3 cells are endothelial cells that form tight barriers through the formation of transcellular tight junctions (Montesano et al. 1990; Sikorski et al. 1993; Williams et al. 1988), and these barriers mimic the barrier properties of the BBB (He et al. 2010; Watanabe et al. 2013). Their endothelial nature has been confirmed by the expression of von Willebrand factor and the uptake of fluorescently labeled low density lipoprotein. BEND3 cells were cultured in Dulbecco's Modified Eagle Medium (DMEM) supplemented with 15% FBS and 1% (100 U/ml Penicillin and 100 μg/ml Streptomycin). […]
To study the transport of nanoparticle formulations across the BEND3 BBB model barrier, a complete Ussing chamber system with a multichannel voltage-current clamp and the EasyMount Ussing chambers (Model VCC MC8; P2300; Physiologic Instruments Inc.; San Diego, Calif.) was used. […] To subtract the background resistance, a blank cell-culture insert was placed onto the slider and used to compensate for any fluid or blank membrane resistance by dialing off any reading to zero. […] Before the start of the experiment, all cell barrier preparations were evaluated for resistance properties and current flow using the acquire and analyze software. […]

[3] = OT in CSF and plasma by ELISA after intranasal administration; format: in vivo, Swiss-Webster mice; settings: 2 hours after intranasal administration, 50 ug OT
[4] = within one hour of intranasal delivery (Leng and Ludwig 2016); cited from earlier work
[5] = in vivo; cited from earlier work

benzalkonium chloride
cell viability ([1]; after 24 hours): 21.44% | cell viability ([1]; after 48 hours): 20.089%

Cc1cc(-c2ccc(/N=N/c3c(S(=O)(=O)O)cc4cc(S(=O)(=O)O)cc(N)c4c3O)c(C)c2)ccc1/N=N/c1c(S(=O)(=O)O)cc2cc(S(=O)(=O)O)cc(N)c2c1O [trypan blue]
transport across the barrier, presence versus absence of the cell barrier [2]: significant reduction

CC[C@H](C)[C@@H]1NC(=O)[C@H](Cc2ccc(O)cc2)NC(=O)[C@@H](N)CSSC[C@@H](C(=O)N2CCC[C@H]2C(=O)N[C@@H](CC(C)C)C(=O)NCC(N)=O)NC(=O)[C@H](CC(N)=O)NC(=O)[C@H](CCC(N)=O)NC1=O [OT, oxytocin]
proportion of OT in CSF versus the total in CSF plus plasma [3]: 4.2% | calculated maximum transfer of a dose to the brain [4]: 0.005% | half-life in the blood [5]: on the order of minutes
